Data reported in patent US20200397808A1, “TREATMENT OF STEROID-RESISTANT DISEASE USING AN ANTHOCYANIN AND A CORTICOSTEROID” (THE CLEVELAND CLINIC FOUNDATION, priority 2017, published 2020).

How the values were obtained:
[1] = tested on: Th17-induced neutrophilic airway inflammation; test: Th17 cell-mediated neutrophilic asthma model; assay type: in vivo, C57BL/6 mice; conditions: C3G alone, 200 μg i.p./100 μg i.n per mouse
Protocol: FIGS. 3A and 3B provide graphs showing C3G attenuates neutrophilic airway inflammation in a Th17-induced asthma model. A. HDM/CFA-induced neutrophilic asthma in 8-week female C57BL/6 mice (n=5 per group). B. Shown are total and differential cell counts in BAL cell count. HDM, house dust mite. Treatment groups: Control (DMSO); Low DEX (0.3 mg/kg BW, i.p.); C3G (200 μg i.p./100 μg i.n per mouse); Low DEX/C3G. DEX and C3G were delivered to mice 1 h before HDM challenges. Mice were sacrificed after the last HDM challenge.
C3G attenuates neutrophilic airway inflammation in a Th17-induced asthma model. To further confirm the synergistic effect of DEX/C3G in IL-17A-driven asthma, the efficacy of C3G was tested in a TH17 cell-mediated neutrophilic asthma model (FIG. 3).

[2] = tested on: HDM-induced neutrophilic airway inflammation; test: HDM/CFA-induced acute neutrophilic steroid-resistant severe asthma model; assay type: in vivo, C57BL/6 mice; set-up: airway inflammation (BAL cell count, inflammatory gene expression in the lung): dose or concentration left out as unconfirmed
Protocol: FIGS. 1A and 1B provide graphs showing C3G attenuates neutrophilic airway inflammation in a HDM-induced acute asthma model. A. HDM/CFA-induced neutrophilic asthma in 8-week female C57BL/6 mice (n=8 per group). B. Shown are total and differential cell counts in BAL cell count. HDM, house dust mite. […] DEX and C3G were delivered to mice 24 h before HDM sensitization and 1 h before HDM challenge. Mice were sacrificed after HDM challenge. i.p., intraperitoneally; i.n. intranasally.
FIGS. 2A and 2B provide graphs showing Oral C3G attenuates neutrophilic airway inflammation in a HDM-induced acute asthma model. A. HDM/CFA-induced neutrophilic asthma in 8-week female C57BL/6 mice (n=5 per group). B. Shown are total and differential cell counts in BAL cell count. HDM, house dust mite. Treatment groups: Control (DMSO); Low DEX (0.3 mg/kg BW, i.p.); Low DEX+10 mg C3G (per mouse); Low DEX+20 mg C3G (per mouse); DEX and C3G were delivered to mice 24 h before HDM sensitization and 1 h before HDM challenge. Mice were sacrificed after HDM challenge.
C3G attenuates neutrophilic airway inflammation in a HDM-induced acute asthma model. House dust mite (HDM), a natural allergen to which asthmatics are often sensitized, can induce neutrophilic airway inflammation, which is often associated with steroid-resistant severe asthma. The inventors have established an HDM/CFA-induced neutrophilic severe asthma model. The ability of C3G in combination with low-dose DEX (low DEX) was evaluated in alleviating neutrophilic airway inflammation in a HDM-induced steroid-resistant severe asthma model. Eight-week WT C57BL/6 female mice were sensitized subcutaneously (s.c.) with HDM (100 μg per mouse) in Complete Freund's Adjuvant (CFA) on day 0 and subsequently challenged (i.n.) with HDM (100 μg per mouse) on day 14. BAL cell counting and tissue collection were performed after 24 h of last HDM challenge. […]

[3] = molecular target: T1, IL-17A and IL-17ARA (IL-17A receptor subunit) interaction (Homo sapiens, UniProt Q96F46); test: IL-17A binding to IL-17ARA inhibition; conditions: read-out: IC50, inhibitory activity for IL-17A binding to IL-17ARA
T1 sequence (Q96F46 33-320 limits assumed): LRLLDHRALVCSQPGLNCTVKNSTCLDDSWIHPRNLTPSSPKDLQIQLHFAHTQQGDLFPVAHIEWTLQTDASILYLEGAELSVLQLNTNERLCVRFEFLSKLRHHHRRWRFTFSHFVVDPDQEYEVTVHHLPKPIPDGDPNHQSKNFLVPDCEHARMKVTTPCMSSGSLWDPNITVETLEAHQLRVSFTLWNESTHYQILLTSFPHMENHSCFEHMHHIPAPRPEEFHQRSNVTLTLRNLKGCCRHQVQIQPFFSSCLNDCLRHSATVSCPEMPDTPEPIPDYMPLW

IC50 [3]: 6.88 µM
SMILES: OC[C@H]1O[C@@H](Oc2cc3c(O)cc(O)cc3[o+]c2-c2ccc(O)c(O)c2)[C@H](O)[C@@H](O)[C@@H]1O [C3G, Cyanidin-3-glucoside]
neutrophilic airway inflammation (BAL cell count) [1]: alleviated the inflammation dramatically
airway inflammation (BAL cell count, inflammatory gene expression in the lung) ([2]; C3G alone): reduced to some degree
airway inflammation (BAL cell count) ([2]; oral C3G 20 mg/mouse in the presence of low DEX, versus 10 mg/mouse): did not improve the efficacy further
airway inflammation (BAL cell count) ([2]; oral C3G by gavage 10 mg/mouse in the presence of low DEX): able to inhibit airway inflammation
